Assay results published in US5641800A, “1H-indole-1-functional sPLA2 inhibitors” (Eli Lilly and Company, priority 1995, dated 1997).

Tests used:
[1] = molecular target: T1, Human Secreted Phospholipase A2 (Homo sapiens, UniProt P14555); assay: Human secreted phospholipase A2 inhibition tests on guinea pig lung tissue (pleural strip contraction); type: tissue-based; conditions: guinea pig lung pleural strips, sPLA2-induced contraction, 37° C., compound added 30 min. prior; Schild slope 1, apparent KB = dissociation constant of the inhibitor; read-out: Tissue test secreted PLA2, Apparent KB
T1 sequence (P14555 21-144): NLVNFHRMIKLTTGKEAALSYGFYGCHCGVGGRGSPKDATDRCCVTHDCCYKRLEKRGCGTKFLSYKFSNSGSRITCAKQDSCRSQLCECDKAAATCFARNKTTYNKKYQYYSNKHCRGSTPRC
From the text: Male Hartley strain guinea pigs (500-700 g) were killed by cervical dislocation and their heart and lungs removed intact and placed in aerated (95% 02 :5% CO2) Krebs buffer. Dorsal pleural strips (4×1×25 mm) were dissected from intact parenchymal segments (8×4×25 mm) cut parallel to the outer edge of the lower lung lobes. Two adjacent pleural strips, obtained from a single lobe and representing a single tissue sample, were tied at either end and independently attached to a metal support rod. One rod was attached to a Grass force-displacement transducer (Model FTO3C, product of Grass Medical Instruments Co., Quincy, Mass., USA). […] All tissues were placed in 10 ml jacketed tissue baths maintained at 37° C. The tissue baths were continuously aerated and contained a modified Krebs solution of the following composition (millimolar) NaCl, 118.2; KCl, 4.6; CaCl2.2H2 O, 2.5; MgSO4.7H2 O, 1.2; NaHCO3, 24.8; KH2 PO4, 1.0; and dextrose, 10.0. Pleural strips from the opposite lobes of the lung were used for paired experiments.
Initially tissues were challenged 3 times with KCl (40 mM) to test tissue viability and to obtain a consistent response. After recording the maximal response to KCl, the Elssues were washed and allowed to return to baseline before the next challenge. Cumulative concentration-response curves were obtained from pleural strips by increasing the agonist concentration (sPLA2) in the tissue bath by half-log10 increments while the previous concentration remained in contact with the tissues (Ref.1, supra.) Agonist concentration was increased after reaching the plateau of the contraction elicited by the preceding concentration. One concentration-response curve was obtained from each tissue. To minimize variability between tissues obtained from different animals, contractile responses were expressed as a percentage of the maximal response obtained with the final KCl challenge. […]
Data from different experiments were pooled and presented as a percentage of the maximal KCl responses (mean±S.E.). To estimate the drug induced rightward shifts in the concentration response curves, the curves were analyzed simultaneously using statistical nonlinear modeling methods similar to those described by Waud (1976), Equation 26, p. […] The Schild slope was determined to be 1, using statistical nonlinear modeling methods similar to those described by Waud 1976), Equation 27, p. […]
To estimate the drug-induced suppression of the maximal responses, sPLA2 responses (10 ug/ml) were determined in the absence and presence of drug, and percent suppression was calculated for each pair of tissues. […]

human secreted PLA2 = molecular target: T2, human secreted PLA2 (Homo sapiens, UniProt P14555); assay: Chromogenic assay, inhibition of recombinant human secreted phospholipase A2; type: biochemical; conditions: recombinant human sPLA2, diheptanoyl thio-PC substrate, pH 7.5, 40° C., 30 minutes, 405 nm; ± mean deviation (3-4 tests)
T2 sequence (P14555 21-144): T1 sequence (P14555 21-144)
From the text: The following chromogenic assay procedure was used to identify and evaluate inhibitors of recombinant human secreted phospholipase A2. The assay described herein has been adapted for high volume screening using 96 well microtiter plates. A general description of this assay method is found in the article, "Analysis of Human Synovial Fluid Phospholipase A2 on Short Chain Phosphatidylcholine-Mixed Micelles: Development of a Spectrophotometric Assay Suitable for a Microtiterplate Reader", by Laure J. Reynolds, Lori L. Hughes, and Edward A Dennis, Analytical Biochemistry,204, pp. 190-197, 1992 (the disclosure of which is incorporated herein by reference):
Bovine Serum Albumin (fatty acid free) (1 g/L) (Sigma A-7030, product of Sigma Chemical Co. St. Louis Mo., USA)
racemic 1,2-bis(heptanoylthio)-1,2-dideoxy-sn-glycero-3-phosphorylcholine
A measured volume of racemic dipheptanoyl thio PC supplied in chloroform at a concentration of 100 mg/ml is taken to dryness and redissolved in 10 millimolar TRITON X 100™ nonionic detergent aqueous solution. Reaction Buff added to the solution, then DTNB to give the Reaction Mixture.
The reaction mixture thus obtained contains […] diheptanoly thio-PC substrate, 0.29 mm Triton X-100™ detergent, and 0.12 mm DTMB in a buffered aqueous solution at pH 7.5.
1. Add 0.2 ml reaction mixture to all wells;
2. Add 10 ul test compound (or solvent blank) to appropriate wells, mix 20 seconds;
3. Add 50 nanograms of sPLA2 (10 microliters) to appropriate wells;
4. Incubate plate at 40° C. for 30 minutes;
5. Read absorbance of wells at 405 nanometers with an automatic plate reader.
All compounds were tested in triplicate. Typically, compounds were tested am a final concentration of 5 ug/ml. […] Lack of color development at 405 nanometers evidenced inhibition. Compounds initially found to be active were reassayed to confirm their activity and, if sufficiently active, IC50 values were determined. […] In all cases, % inhibition measured at 405 nanometers generated by enzyme reactions containing inhibitors relative to the uninhibited control reactions was determined. Each sample was titrated in triplicate and result values were averaged for plotting and calculation of IC50 values. IC50 were determined by plotting log concentration versus inhibition values in the range from 10-90% inhibition.

Row | Kb [1] | IC50 (human secreted PLA2) | SMILES
1 | 415 ± 51 nM | 35 ± 8 nM | CCc1c(Cc2ccccc2)c2ccc(OCCCP(=O)(O)O)cc2n1CC(N)=O [Example 3, [3-[[1-(2-amino-2-oxoethyl)-2-ethyl-3-(phenylmethyl)-1H-indol-6-yl]oxy]propyl]phosphonic acid]
2 | 1470 ± 340 nM | 33 ± 3 nM | CCc1c(Cc2ccccc2)c2ccc(OCCCC(=O)O)cc2n1CC(N)=O [Example 2, 4-[[1-(2-amino-2-oxoethyl)-2-ethyl-3-(phenylmethyl)-1H-indol-6-yl]oxy]butyric acid]
3 | 390 ± 120 nM | 13 ± 2 nM | Cc1c(Cc2ccccc2)c2cccc(OCC(=O)O)c2n1CC(N)=O [Example 1, [[1-(2-Amino-2-oxoethyl)-2-methyl-3-(phenylmethyl)-1H-indol-7-yl]oxy]acetic acid]
4 | 1670 ± 280 nM | 200 ± 90 nM | Cc1c(Cc2ccccc2)c2cccc(OCC(=O)O)c2n1CC(=O)NN [Example 4, [[1-(2-hydrazino-2-oxoethyl)-2-methyl-3-(phenylmethyl)-1H-indol-7-yl]oxy]acetic acid]
